Assay results as given in patent US10226041B2, “Compositions and methods for improving the quality of processed sperm” (Inguran, LLC, priority 2011, dated 2019).

System: sex-sorted sperm cells
Experiment: CASA post-thaw motility of sex sorted bull sperm treated with OSR
Format: cell-based, bovine
Design: key to BCF: beat cross frequency in Hz; key to ALH: lateral head displacement in μm; key to STR / LIN: percent; key to Motile: percent motile sperm; key to VAP / VSL / VCL: velocity in μm/s
Details: 3 step
Excerpt: 5. Sperm Motility Evaluations by CASA. A comparison of viewing chambers and slides can be done in a variety of IVOS instruments, which for example only can be a Hamilton-Thorne IVOS (Hamilton-Thorne, Beverly, Mass.). Instrument settings: image capture; frames per second=60; number of frames=30; cell detection; minimum contrast=50; minimum cell size=5; defaults, cell size=5; cell intensity=50; progressive cells, path velocity=50 um/s; straightness ≥70%; slow cells (um/s); average path velocity (VAP, <30 um/s), straight-line velocity (VSL, <15 um/s). The CASA motility variables measured can be a percentage of total motile sperm (motile), percentage of progressively motile sperm (progressive), VAO, VSL, curvilinear velocity (VCL, um/s), average lateral head displacement (ALK, um) and the number of times the sperm head crosses the mean path/s (BCF, Hz), straight-line sperm motility (STR, %), and linear sperm motility (LIN, %). See for instance, Lenz, R W, et al., J Anim Sci (2011) 89:383-388, incorporated by reference herein in its entirety.
One set of semen from each bull was used as a control while to the remaining sets of semen samples were added vitamin B12, as the antioxidant, at respective concentrations of 0.5 mg/ml and 0.25 mg/ml. For each sample, the same concentration of vitamin B12 was added (i) during the staining process, and (ii) in the catch fluid of the collection vessel. […] Sperm samples were sorted in “High Purity” mode, and the collected sex-sorted sperm were extended with a cryoextender, which in some cases again contained the same concentration of vitamin B12 and the samples were frozen. Three hours after thawing (which is a standard time frame to conduct quality control assessments on sorted frozen thawed sperm samples) the thawed samples were put through CASA, a machine that provides various data on sperm including motility and progressive motility information.
In the tables below: VAP (average path velocity (μm/s)); VSL (straight-line velocity (μm/s)); VCL (curvilinear velocity (μm/s)); ALH (average lateral head displacement (μm)); BCF (the number of times the sperm head crosses the mean path/s in Hz); STR (percent straight-line sperm motility); LIN (percent linear sperm motility); PIA (percent intact acrosomes); motile (percent motile sperm); and progressive (percent progressively motile sperm).
There is no correlation with regard to randomly assigned names such as “Bull A.” Bull A from Example 5 is not the same bull as Bull A from Example 7.
In both cases the concentration of the vitamin B12 was 1 mg/ml. For all other bulls in the table below unless otherwise indicated, the concentration of vitamin B12 added was also 1 mg/ml.
In an additional experiment, motility and progressive motility were checked 3.75 hours after thawing a sex sorted semen sample treated with the antioxidant. The OSR was not added to the control sample. The semen sample was derived from a single bull. 0.25 mg/ml concentration of vitamin B12 was added to the test sample during the staining step, the collecting step (in the catch fluid of the collecting vessel) and in the cryoprotectant extender prior to freezing the sample.
[…] The OSR was not added to the control samples. The semen samples were derived from two Holstein bulls.

[1] = Holstein 0 hr post-thaw, .25 mg/ml
[2] = Holstein 0 hr post-thaw, .35 mg/ml
[3] = Holstein 0 hr post-thaw, .45 mg/ml
[4] = Holstein 3 hr post-thaw (1st block), .25 mg/ml
[5] = Holstein 3 hr post-thaw (1st block), .35 mg/ml
[6] = Holstein 3 hr post-thaw (1st block), .45 mg/ml
[7] = Holstein 3 hr post-thaw (2nd block), .25 mg/ml
[8] = Holstein 3 hr post-thaw (2nd block), .35 mg/ml
[9] = Holstein 3 hr post-thaw (2nd block), .45 mg/ml
[10] = Holstein 6 hr post-thaw (1st block), .25 mg/ml
[11] = Holstein 6 hr post-thaw (1st block), .35 mg/ml
[12] = Holstein 6 hr post-thaw (1st block), .45 mg/ml
[13] = Holstein 6 hr post-thaw (2nd block), .25 mg/ml
[14] = Holstein 6 hr post-thaw (2nd block), .35 mg/ml
[15] = Holstein 6 hr post-thaw (2nd block), .45 mg/ml
[16] = Jersey 0 hr post-thaw, .25 mg/ml
[17] = Jersey 0 hr post-thaw, .35 mg/ml
[18] = Jersey 0 hr post-thaw, .45 mg/ml
[19] = Jersey 3 hr post-thaw, .25 mg/ml
[20] = Jersey 3 hr post-thaw, .35 mg/ml
[21] = Jersey 3 hr post-thaw, .45 mg/ml

O=C(O)CCC(=O)C(=O)O [AKG, Alpha-ketoglutarate]
ALH [1]: 8
BCF [1]: 27
LIN [1]: 48
Motile [1]: 91
Prog [1]: 75
STR [1]: 82
VAP [1]: 104
VCL [1]: 185
VSL [1]: 81
ALH [2]: 7
BCF [2]: 29
LIN [2]: 51
Motile [2]: 80
Prog [2]: 65
STR [2]: 85
VAP [2]: 94
VCL [2]: 165
VSL [2]: 80
ALH [3]: 7
BCF [3]: 30
LIN [3]: 57
Motile [3]: 86
Prog [3]: 75
STR [3]: 89
VAP [3]: 98
VCL [3]: 162
VSL [3]: 88
ALH [4]: 7
BCF [4]: 26
LIN [4]: 45
Motile [4]: 77
Prog [4]: 60
STR [4]: 81
VAP [4]: 99
VCL [4]: 176
VSL [4]: 79
ALH [5]: 6
BCF [5]: 25
LIN [5]: 50
Motile [5]: 63
Prog [5]: 48
STR [5]: 83
VAP [5]: 85
VCL [5]: 145
VSL [5]: 70
ALH [6]: 5
BCF [6]: 24
LIN [6]: 56
Motile [6]: 60
Prog [6]: 56
STR [6]: 85
VAP [6]: 94
VCL [6]: 145
VSL [6]: 80
ALH [7]: 6
BCF [7]: 26
LIN [7]: 47
Motile [7]: 71
Prog [7]: 55
STR [7]: 81
VAP [7]: 96
VCL [7]: 169
VSL [7]: 77
ALH [8]: 5
BCF [8]: 21
LIN [8]: 50
Motile [8]: 64
Prog [8]: 38
STR [8]: 84
VAP [8]: 69
VCL [8]: 117
VSL [8]: 57
ALH [9]: 6
BCF [9]: 25
LIN [9]: 53
Motile [9]: 60
Prog [9]: 50
STR [9]: 84
VAP [9]: 90
VCL [9]: 144
VSL [9]: 75
ALH [10]: 6
BCF [10]: 17
LIN [10]: 39
Motile [10]: 36
Prog [10]: 7
STR [10]: 76
VAP [10]: 44
VCL [10]: 87
VSL [10]: 33
ALH [11]: 7
BCF [11]: 16
LIN [11]: 40
Motile [11]: 58
Prog [11]: 7
STR [11]: 76
VAP [11]: 42
VCL [11]: 80
VSL [11]: 32
ALH [12]: 5
BCF [12]: 22
LIN [12]: 48
Motile [12]: 52
Prog [12]: 22
STR [12]: 82
VAP [12]: 55
VCL [12]: 96
VSL [12]: 46
ALH [13]: 6
BCF [13]: 17
LIN [13]: 39
Motile [13]: 36
Prog [13]: 7
STR [13]: 76
VAP [13]: 44
VCL [13]: 87
VSL [13]: 33
ALH [14]: 7
BCF [14]: 16
LIN [14]: 40
Motile [14]: 58
Prog [14]: 7
STR [14]: 76
VAP [14]: 42
VCL [14]: 80
VSL [14]: 32
ALH [15]: 5
BCF [15]: 22
LIN [15]: 48
Motile [15]: 52
Prog [15]: 22
STR [15]: 82
VAP [15]: 55
VCL [15]: 96
VSL [15]: 46
ALH [16]: 7
BCF [16]: 24
LIN [16]: 48
Motile [16]: 67
Prog [16]: 51
STR [16]: 83
VAP [16]: 83
VCL [16]: 152
VSL [16]: 68
ALH [17]: 6
BCF [17]: 25
LIN [17]: 47
Motile [17]: 57
Prog [17]: 43
STR [17]: 82
VAP [17]: 79
VCL [17]: 146
VSL [17]: 63
ALH [18]: 6
BCF [18]: 27
LIN [18]: 56
Motile [18]: 81
Prog [18]: 66
STR [18]: 87
VAP [18]: 81
VCL [18]: 133
VSL [18]: 70
ALH [19]: 5
BCF [19]: 24
LIN [19]: 46
Motile [19]: 33
Prog [19]: 16
STR [19]: 79
VAP [19]: 65
VCL [19]: 117
VSL [19]: 49
ALH [20]: 6
BCF [20]: 25
LIN [20]: 45
Motile [20]: 26
Prog [20]: 10
STR [20]: 80
VAP [20]: 59
VCL [20]: 110
VSL [20]: 46
ALH [21]: 6
BCF [21]: 25
LIN [21]: 45
Motile [21]: 59
Prog [21]: 25
STR [21]: 78
VAP [21]: 67
VCL [21]: 66
VSL [21]: 50
